For one data set, the system named is Edwardsiella tarda. As to the kind of experiment: microbe, parasite or virus in culture. The data set is classed as cell-based. Particulars: read-out: MIC, Et (Edwardsiella tarda).
Another data set relates to Vibrio anguillarum. As to the kind of experiment: microbe, parasite or virus in culture. The following applies: read-out: MIC, Va (Vibrio anguillarum). The data set is classed as cell-based.
The subject of data set [1] is Xanthomonas oryzae pv. oryzae. As to the kind of experiment: microbe, parasite or virus in culture. Particulars: 24 h, read-out: MIC, Xe (Xanthomonas oryzae pv. oryzae). The data set is classed as cell-based.
Data set [2] deals with Xanthomonas oryzae pv. oryzicola. As to the kind of experiment: microbe, parasite or virus in culture. It counts as cell-based. The following applies: 24 h, read-out: MIC, Xa (Xanthomonas oryzae pv. oryzicola).
The next data set has as its system Aeromonas hydrophilia. As to the kind of experiment: microbe, parasite or virus in culture. It counts as cell-based. The following applies: read-out: MIC, Ah (Aeromonas hydrophilia).
The test system of a further data set is Vibrio parahaemolyticus. As to the kind of experiment: microbe, parasite or virus in culture. It counts as cell-based. The following applies: read-out: MIC, Vp (Vibrio parahaemolyticus).
For data set [3], the system named is Colletotrichum gloeosporioides. As to the kind of experiment: Antimicrobial MIC assay, Colletotrichum gloeosporioides. The data set is classed as cell-based. The following applies: 28 °C, 3-4 days, read-out: MIC, Cg (Colletotrichum gloeosporioides).
The subject of data set [4] is THP-1 cells. As to the kind of experiment: MTT viability of THP-1 cells (safe concentration). Particulars: concentration range of THP-1 cells viability over 80%, 36 h.
The next data set concerns Fusarium oxysporum. As to the kind of experiment: Antimicrobial MIC assay, Fusarium oxysporum. The data set is classed as cell-based. The following applies: 28 °C, 3-4 days, read-out: MIC, Fo (Fusarium oxysporum).
In data set [5] the test system is Propionibacterium acnes (ATCC6919). As to the kind of experiment: Antimicrobial assay against P. acnes (to exclude false anti-inflammatory activity). The following applies: Cutibacterium acnes, ATCC6919, read-out: P. acnes MIC.
The subject of another data set is Rhizoctonia solani. As to the kind of experiment: Antimicrobial MIC assay, Rhizoctonia solani. It counts as cell-based. The following applies: 28 °C, 3-4 days, read-out: MIC, Rs (Rhizoctonia solani).
Data set [6] has as its system THP-1 cells. Particulars: human, 36 h.

The values below come from PMC8002477, “Bioactive Indole Diketopiperazine Alkaloids from the Marine Endophytic Fungus Aspergillus sp. YJ191021” (Marine Drugs, 2021).

Values after ≈ are worked out from the molar mass of the structure shown. Where two headings read alike, the source gives them in different places.

In the case of `O=C(N[C@H](CO)[C@H](O)c1ccc([N+](=O)[O-])cc1)C(Cl)Cl` [Chloromycetin, reference compound], the MIC in the data set on Edwardsiella tarda stood at 2 µg/mL (≈ 6.19 µM); with Vibrio anguillarum it was 0.5 µg/mL (≈ 1.55 µM); in data set [1], 12.5 µg/mL (≈ 38.7 µM); in [2], 12.5 µg/mL (≈ 38.7 µM); in the data set on Aeromonas hydrophilia, 2 µg/mL (≈ 6.19 µM); in the data set on Vibrio parahaemolyticus, 2 µg/mL (≈ 6.19 µM).
Take `CC1(C)C=Cc2c(ccc3c2[N+]([O-])=C2C3=CC34NC(=O)C5(CCCN5C3=O)CC4C2(C)C)O1` (stereo not shown) [Compound 1, Asperthrin A]: the MIC in the data set on Edwardsiella tarda was 16 µg/mL (≈ 35.9 µM); with Vibrio anguillarum, 8 µg/mL (≈ 18 µM); in data set [1] it was 50 µg/mL (≈ 112 µM); in data set [3], greater than 100 µg/mL; in [2], 12.5 µg/mL (≈ 28.1 µM); in the data set with Aeromonas hydrophilia, 32 µg/mL (≈ 71.8 µM). Further, the MIC is 16 µg/mL (≈ 35.9 µM) in the data set on Vibrio parahaemolyticus, greater than 100 µg/mL in the data set on Fusarium oxysporum and greater than 5 µM in data set [5]. Also, in the data set on THP-1 cells [4], the “THP-1 Cells SC (safe concentration)” value was in the range of 0 to 5 µM.
With `CC(=O)OC1C23NC(=O)C4(CCCN4C2=O)CC3C(C)(C)C12C(=O)Nc1c2ccc2c1C=CC(C)(C)O2` (stereo not shown) [Compound 5, Asperthrin E], the MIC with Rhizoctonia solani (agricultural pathogenic fungus) is 25 µg/mL (≈ 49.4 µM); in data set [1], greater than 100 µg/mL; in data set [3] (agricultural pathogenic fungus) it was greater than 100 µg/mL; in [2] it was greater than 100 µg/mL; with Fusarium oxysporum (agricultural pathogenic fungus), greater than 100 µg/mL; in data set [5], greater than 40 µM. Further, in the data set with THP-1 cells [4], the “THP-1 Cells SC (safe concentration)” value was 0 to 40 µM.
As for `CC1(C)C=Cc2c(ccc3c2NC24N5C(=O)C6(O)CCCN6C(=O)C5CC32OC(CO)C4(C)C)O1` (stereo not shown) [Compound 6, Asperthrin F], in the data set with THP-1 cells [4], the “THP-1 Cells SC (safe concentration)” value was 0 to 50 µM. In addition, the MIC in [5] was greater than 50 µM.
Take `CC1(C)C=Cc2c(ccc3c2NC(=O)[C@@]32[C@H](O)[C@@]34NC(=O)[C@]5(CCCN5C3=O)C[C@H]4C2(C)C)O1` [Compound 9, sclerotiamide]: the MIC with Rhizoctonia solani was 25 µg/mL (≈ 53.9 µM); in [1], greater than 100 µg/mL; in data set [3] it was greater than 100 µg/mL; in [2], greater than 100 µg/mL; with Fusarium oxysporum it was greater than 100 µg/mL; in data set [5], greater than 50 µM. In addition, the “THP-1 Cells SC (safe concentration)” value in the data set on THP-1 cells [4] is 0 to 50 µM.
As for `CC1(C)C=Cc2c(ccc3c2N(O)C(=O)C32C(O)C34NC(=O)C5(CCCN5C3=O)CC4C2(C)C)O1` (stereo not shown) [Compound 10, notoamide H], the MIC in the data set on Rhizoctonia solani was 25 µg/mL (≈ 52.1 µM); in data set [1] it was greater than 100 µg/mL; in [3] it was greater than 100 µg/mL; in data set [2], greater than 100 µg/mL; in the data set on Fusarium oxysporum it was greater than 100 µg/mL; in data set [5], greater than 50 µM. Besides, the “THP-1 Cells SC (safe concentration)” value with THP-1 cells [4] lay within 0 to 50 µM.
Regarding `CC1(C)C=Cc2c(ccc3c4c([nH]c23)C(C)(C)[C@@H]2C[C@]35CCCN3C(=O)[C@]2(NC5=O)[C@H]4O)O1` [Compound 12, notoamide R], the “THP-1 Cells SC (safe concentration)” value in the data set on THP-1 cells [4] fell in the range of 0 to 50 µM. The MIC in [5] is greater than 50 µM.
Regarding `CC(=O)N1CCN(c2ccc(OCC3COC(Cn4ccnc4)(c4ccc(Cl)cc4Cl)O3)cc2)CC1` (stereo not shown) [Ketoconazole, ketoconazole, reference compound], the MIC amounted to 0.78 µg/mL (≈ 1.47 µM) in the data set with Rhizoctonia solani (agricultural pathogenic fungus), 12.5 µg/mL (≈ 23.5 µM) in [3] (agricultural pathogenic fungus) and 100 µg/mL (≈ 188 µM) in the data set on Fusarium oxysporum (agricultural pathogenic fungus).
Regarding `CC1=C(/C=C/C(C)=C/C=C/C(C)=C/C(=O)O)C(C)(C)CCC1` [Tretinoin, reference compound], the “THP-1 Cells SC (safe concentration)” value in the data set on THP-1 cells [6] fell in the range of 0 to 50 µM. Also, in data set [5], the MIC was greater than 50 µM.
